In PubChem BioAssay AID1963850 (Molecular Pharmacology Branch, DTP, NCI, 2024):

System: 192522-019-R-J2-PDC complex tumor spheroid viability
Assay: Anticancer human tumor 192522-019-R-J2-PDC patient-derived colon adenocarcinoma cell line growth inhibition [POLQ]
Settings: for IC50: curve of first compound; for viability, T/C: stronger effect = lower value
Experimental: Multicellular complex tumor spheroid response to Polymerase (POL) inhibitors (novobiocin, ART-558, RP6685) in combination with a variety of drugs and investigational agents in selected tumor cell lines
The POL inhibitors (novobiocin, ART-558, and RP6685) were evaluated both individually and in combination with standard of care and investigational anticancer small molecules within a complex spheroid model of solid tumors. . Complex spheroids include a stromal component modeled by human endothelial cells (HUVEC) and fibroblasts modeled by human mesenchymal stem cells (MSCs). The concentration ranges selected for each drug and investigational agent were based upon clinically achievable concentrations if the clinical Cmax of the agent was known.
Compounds. The drugs and investigational agents: novobiocin (NSC847541), ART-558 (NSC835418), RP-6685 (NSC848927), peposertib (NSC802822), ceralasertib (NSC780249), elimusertib (NSC800525), camonsertib (NSC841442), AZD-1390 (NSC803789), olaparib (NSC753686), talazoparib (NSC767125), rucaparib (NSC756644), sotorasib (NSC818433), MRTX-1133 (NSC836407), SN-38 (NSC673596), topotecan (NSC609699), epotoside (NSC141540), doxorubicin (NSC123127), gemcitabine (NSC613327), 5-fluorouracil (NSC19893), paclitaxel (NSC125973), vemurafenib (NSC761431), MSA-2 (NSC828583), SN-011 (NSC837082), adavosertib (NSC754352), prexasertib (NSC758257), carboplatin (NSC241240) and oxaliplatin (NSC266046), were obtained from the National Cancer Institute (NCI) Developmental Therapeutics Program Chemical Repository (21). The FDA-approved anticancer drug set is available from the Developmental Therapeutics Program at https://dtp.cancer.gov/organization/dscb/obtaining/. […] The stock solutions were prepared in dimethyl sulfoxide (DMSO, Sigma-Aldrich, St. Louis, MO, cat. D2650), except for the platinum compounds which were prepared in saline (Quality Biological, Gaithersburg, MD, cat. 114-055-101), at 800-fold the tested concentration and stored at -70 degrees C prior to their use. All drugs and investigational agents were tested over a range starting from a high concentration at or near the clinical Cmax and decreasing in half-log increments. If the clinical Cmax for an agent had not been determined, the highest concentration tested was 10 microM, except for SN-38, which was tested at a high concentration of 1 microM.
Cell Culture. All cells were maintained in an incubator at 37 degrees C and 5% CO2 with 95% humidity. The PDC lines were cultured according to standard operating procedures established by the NCI PDMR (https://pdmr.cancer.gov). Table 3 of the manuscript, lists the cell lines along with the number of the three cell types plated to form the mct-spheroids and media for tumor cell growth. After thawing, all PDC lines, except 997537-175-T-J1-PDC and 415267-285-R-J2-PDC, were cultured in Matrigel-coated flasks prepared with a working solution of 1X Ham's F-12 nutrient mix, without supplementation (Thermo Fisher Scientific, cat. 11765054), 100 U/mL penicillin-streptomycin (Thermo Fisher Scientific, cat. 15140122), and 2.5% Matrigel (Corning Inc., Corning, NY, cat. 354248) for the first three passages. The two PDC lines 997537-175-T-J1-PDC and 415267-285-R-J2-PDC were cultured on uncoated flasks. The 857933-349-R-J2-PDC line was cultured in 6C/Colon 1B media containing advanced DMEM/F-12 (Thermo Fisher Scientific, cat. 12634028), 10 mM HEPES (Thermo Fisher Scientific, cat. 15630080), 1X GlutaMAX supplement (Thermo Fisher Scientific, cat. 35050061), 0.1 mg/mL primocin (InvivoGen, San Diego, CA, cat. ant-pm-2), 10% defined fetal bovine serum, heat inactivated (HyClone Laboratories Inc., Logan, UT, cat. SH30070.03HI), 50% L-WRN conditioned media (ATCC, cat. CRL-3276), 1.25 mM N-Acetyl-L-cysteine (Sigma-Aldrich, cat. A9165), 10 mM nicotinamide (Sigma-Aldrich, cat. N0636), 1X B-27 supplement (Thermo Fisher Scientific, cat. 17504044), 1X N-2 supplement (Thermo Fisher Scientific, cat. […]

[1] = second compound 0.0316 µM, first compound 0.0316 µM
[2] = second compound 0.0316 µM, first compound 0.1 µM
[3] = second compound 0.0316 µM, first compound 0.316 µM
[4] = second compound 0.0316 µM, first compound 1 µM
[5] = second compound 0.0316 µM, first compound 3.16 µM
[6] = second compound 0.0316 µM, first compound 10 µM
[7] = second compound 0.1 µM, first compound 0.0316 µM
[8] = second compound 0.1 µM, first compound 0.1 µM
[9] = second compound 0.1 µM, first compound 0.316 µM
[10] = second compound 0.1 µM, first compound 1 µM
[11] = second compound 0.1 µM, first compound 3.16 µM
[12] = second compound 0.1 µM, first compound 10 µM
[13] = second compound 0.316 µM, first compound 0.0316 µM
[14] = second compound 0.316 µM, first compound 0.1 µM
[15] = second compound 0.316 µM, first compound 0.316 µM
[16] = second compound 0.316 µM, first compound 1 µM
[17] = second compound 0.316 µM, first compound 3.16 µM
[18] = second compound 0.316 µM, first compound 10 µM
[19] = second compound 1 µM, first compound 0.0316 µM
[20] = second compound 1 µM, first compound 0.1 µM
[21] = second compound 1 µM, first compound 0.316 µM
[22] = second compound 1 µM, first compound 1 µM
[23] = second compound 1 µM, first compound 3.16 µM
[24] = second compound 1 µM, first compound 10 µM
[25] = second compound 3.16 µM, first compound 0.0316 µM
[26] = second compound 3.16 µM, first compound 0.1 µM
[27] = second compound 3.16 µM, first compound 0.316 µM
[28] = second compound 3.16 µM, first compound 1 µM
[29] = second compound 3.16 µM, first compound 3.16 µM
[30] = second compound 3.16 µM, first compound 10 µM
[31] = second compound 10 µM, first compound 0.0316 µM
[32] = second compound 10 µM, first compound 0.1 µM
[33] = second compound 10 µM, first compound 0.316 µM
[34] = second compound 10 µM, first compound 1 µM
[35] = second compound 10 µM, first compound 3.16 µM
[36] = second compound 10 µM, first compound 10 µM
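Further: spheroids exposed to drugs for seven days before reading.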
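Wherever viability, T/C is given: 100% = DMSO vehicle control viability in luminescence.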

O=C(c1cc(Cc2n[nH]c(=O)c3ccccc23)ccc1F)N1CCN(C(=O)C2CC2)CC1 + COC1C(OC(N)=O)C(O)C(Oc2ccc3c(O)c(NC(=O)c4ccc(O)c(CC=C(C)C)c4)c(=O)oc3c2C)OC1(C)C
IC50 (second compound 0.0316 µM): > 10 µM | IC50 (second compound 0.1 µM): > 10 µM | IC50 (second compound 0.316 µM): > 10 µM | IC50 (second compound 1 µM): > 10 µM | IC50 (second compound 3.16 µM): > 10 µM | IC50 (second compound 10 µM): > 10 µM | viability, T/C [1]: 113% | viability, T/C [2]: 95.1% | viability, T/C [3]: 110% | viability, T/C [4]: 93% | viability, T/C [5]: 102% | viability, T/C [6]: 104% | viability, T/C [7]: 105% | viability, T/C [8]: 102% | viability, T/C [9]: 96.2% | viability, T/C [10]: 98.2% | viability, T/C [11]: 101% | viability, T/C [12]: 97.1% | viability, T/C [13]: 99% | viability, T/C [14]: 98.9% | viability, T/C [15]: 95.8% | viability, T/C [16]: 97% | viability, T/C [17]: 105% | viability, T/C [18]: 90.5% | viability, T/C [19]: 99.7% | viability, T/C [20]: 98.5% | viability, T/C [21]: 100% | viability, T/C [22]: 97.3% | viability, T/C [23]: 106% | viability, T/C [24]: 91.4% | viability, T/C [25]: 102% | viability, T/C [26]: 98.8% | viability, T/C [27]: 107% | viability, T/C [28]: 99.8% | viability, T/C [29]: 106% | viability, T/C [30]: 99.2% | viability, T/C [31]: 97.9% | viability, T/C [32]: 96.6% | viability, T/C [33]: 105% | viability, T/C [34]: 109% | viability, T/C [35]: 106% | viability, T/C [36]: 101%

O=c1[nH]cc(F)c(=O)[nH]1 + COC1C(OC(N)=O)C(O)C(Oc2ccc3c(O)c(NC(=O)c4ccc(O)c(CC=C(C)C)c4)c(=O)oc3c2C)OC1(C)C
IC50 (second compound 0.0316 µM): > 10 µM | IC50 (second compound 0.1 µM): > 10 µM | IC50 (second compound 0.316 µM): > 10 µM | IC50 (second compound 1 µM): > 10 µM | IC50 (second compound 3.16 µM): > 10 µM | IC50 (second compound 10 µM): > 10 µM | viability, T/C [1]: 99.2% | viability, T/C [2]: 75.7% | viability, T/C [3]: 78.8% | viability, T/C [4]: 72.7% | viability, T/C [5]: 73.8% | viability, T/C [6]: 64.2% | viability, T/C [7]: 91.8% | viability, T/C [8]: 80.3% | viability, T/C [9]: 77.4% | viability, T/C [10]: 71.1% | viability, T/C [11]: 71% | viability, T/C [12]: 75.8% | viability, T/C [13]: 91% | viability, T/C [14]: 82% | viability, T/C [15]: 84.8% | viability, T/C [16]: 73.1% | viability, T/C [17]: 71.1% | viability, T/C [18]: 68.7% | viability, T/C [19]: 89.6% | viability, T/C [20]: 78.7% | viability, T/C [21]: 74.7% | viability, T/C [22]: 77.1% | viability, T/C [23]: 70.7% | viability, T/C [24]: 70.7% | viability, T/C [25]: 92.5% | viability, T/C [26]: 86.5% | viability, T/C [27]: 78.1% | viability, T/C [28]: 72.9% | viability, T/C [29]: 74.8% | viability, T/C [30]: 73.3% | viability, T/C [31]: 92.8% | viability, T/C [32]: 76.3% | viability, T/C [33]: 82.7% | viability, T/C [34]: 73.1% | viability, T/C [35]: 77.6% | viability, T/C [36]: 83.1%
